Experimental data taken from DBAASP.
In brackets after ≈: the same amount, converted by molar mass.

Assays:
Test in all cases: ≥ marks a high value that may be exact or a test limit, other limits are often not marked, values filed in µg/mL are converted to µM
Escherichia coli BL21 = system: Escherichia coli BL21
[1] = system: Pseudomonas aeruginosa PAO1
[2] = system: Streptococcus pyogenes M1T1 5448
[3] = system: Staphylococcus aureus USA 300
[4] = system: Staphylococcus aureus ATCC 49476
Candida albicans = system: Candida albicans
[5] = system: Pseudomonas aeruginosa ATCC 27853
Staphylococcus aureus MR = system: Staphylococcus aureus MR
[6] = system: Salmonella enterica subsp. enterica serovar Enteritidis
[7] = system: Staphylococcus aureus ATCC 29213
[8] = system: Staphylococcus aureus NCTC 8325
[9] = system: Staphylococcus aureus ATCC 25923
[10] = system: Pseudomonas aeruginosa H103
[11] = system: Staphylococcus epidermidis
Escherichia coli UB1005 = system: Escherichia coli UB1005
[12] = system: Enterococcus faecalis ATCC 29212
[13] = system: Salmonella enterica serovar Typhimurium

Structure (SMILES) | MIC (Escherichia coli BL21) [µM] | MIC [1] [µM] | MIC [2] [µM] | MIC (Candida albicans) [µM] | MIC [9] [µM] | MIC [10] [µM] | MIC [11] [µM] | MIC (Escherichia coli UB1005) [µM] | MIC [13] [µM] | further results
CC[C@H](C)[C@H](NC(=O)[C@H](CCCN=C(N)N)NC(=O)[C@H](C)NC(=O)[C@H](CCCCN)NC(=O)[C@H](CCCN=C(N)N)NC(=O)CNC(=O)[C@@H](NC(=O)[C@H](CCCCN)NC(=O)[C@H](CCCN=C(N)N)NC(=O)[C@@H](NC(=O)[C@H](CCC(=O)O)NC(=O)[C@H](CCCN=C(N)N)NC(=O)[C@H](CCCN=C(N)N)NC(=O)[C@H](CC(C)C)NC(=O)[C@H](Cc1ccc(O)cc1)NC(=O)[C@H](C)NC(=O)[C@H](CCCCN)NC(=O)[C@@H](NC(=O)[C@H](Cc1c[nH]c2ccccc12)NC(=O)[C@H](CCC(N)=O)NC(=O)[C@H](CCCN=C(N)N)NC(=O)CNC(=O)[C@H](C)N)[C@@H](C)CC)[C@@H](C)CC)C(C)C)C(=O)N[C@@H](C)C(=O)N[C@@H](Cc1c[nH]c2ccccc12)C(=O)O [AGRQWIKAYLRREIRKVGRKARIAW] | 1 (≈ 3.08 µg/mL) | 16 (≈ 49.3 µg/mL) | 2 (≈ 6.17 µg/mL) |  |  |  |  |  |  | 
CC[C@H](C)[C@H](NC(=O)[C@H](CCCCN)NC(=O)[C@H](CCCCN)NC(=O)CNC(=O)[C@H](CCC(=O)O)NC(=O)[C@H](CCC(N)=O)NC(=O)[C@@H](NC(=O)[C@H](CCCCN)NC(=O)[C@H](CCCCN)NC(=O)[C@H](CCCCN)NC(=O)[C@H](CC(C)C)NC(=O)[C@H](CCCN=C(N)N)NC(=O)[C@H](CCC(N)=O)NC(=O)[C@H](Cc1ccccc1)NC(=O)[C@@H](NC(=O)[C@H](CCCCN)NC(=O)[C@H](CCC(=O)O)NC(=O)[C@@H](NC(=O)CNC(=O)[C@H](C)N)[C@@H](C)O)[C@@H](C)CC)[C@@H](C)CC)C(=O)N[C@@H](C)C(=O)N[C@@H](CCCCN)C(=O)N[C@@H](CCCN=C(N)N)C(=O)N[C@@H](C)C(=O)N[C@@H](Cc1c[nH]c2ccccc12)C(=O)O [AGTEKIFQRLKKKIQEGKKIAKRAW] | 1 (≈ 2.96 µg/mL) | 64 (≈ 189 µg/mL) | 0.25 (≈ 0.739 µg/mL) |  |  |  |  |  |  | MIC [3]: 8 µM (≈ 23.7 µg/mL)
CC[C@H](C)[C@H](NC(=O)[C@H](CCCN=C(N)N)NC(=O)[C@H](CCC(N)=O)NC(=O)[C@H](Cc1c[nH]c2ccccc12)NC(=O)CNC(=O)[C@H](C)N)C(=O)N[C@@H](CCCCN)C(=O)N[C@@H](C)C(=O)N[C@@H](Cc1ccc(O)cc1)C(=O)N[C@@H](CC(C)C)C(=O)N[C@@H](CCCN=C(N)N)C(=O)N[C@@H](CCCN=C(N)N)C(=O)N[C@@H](CCC(=O)O)C(=O)N[C@H](C(=O)N[C@@H](CCCN=C(N)N)C(=O)N[C@@H](CCCCN)C(=O)N[C@@H](CCCN=C(N)N)C(=O)NCC(=O)N[C@@H](CCCN=C(N)N)C(=O)N[C@@H](CCCCN)C(=O)N[C@@H](C)C(=O)N[C@H](C(=O)N[C@H](C(=O)N[C@@H](C)C(=O)N[C@@H](Cc1c[nH]c2ccccc12)C(=O)O)[C@@H](C)CC)C(C)C)[C@@H](C)CC [AGWQRIKAYLRREIRKRGRKAVIAW] | 1 (≈ 3.08 µg/mL) | 2 (≈ 6.17 µg/mL) | 2 (≈ 6.17 µg/mL) |  |  |  |  |  |  | 
CC[C@H](C)[C@H](NC(=O)[C@H](CCCN=C(N)N)NC(=O)[C@H](CCC(N)=O)NC(=O)[C@@H](NC(=O)[C@H](Cc1c[nH]c2ccccc12)NC(=O)[C@H](C)N)[C@@H](C)O)C(=O)N[C@@H](CCCCN)C(=O)N[C@@H](C)C(=O)N[C@@H](Cc1ccc(O)cc1)C(=O)N[C@@H](CC(C)C)C(=O)N[C@@H](CCCN=C(N)N)C(=O)N[C@@H](CCCN=C(N)N)C(=O)N[C@@H](CCC(=O)O)C(=O)N[C@H](C(=O)N[C@@H](CCCN=C(N)N)C(=O)N[C@@H](CCCCN)C(=O)N[C@@H](CCCN=C(N)N)C(=O)NCC(=O)N[C@@H](CCCN=C(N)N)C(=O)N[C@@H](CCCCN)C(=O)N[C@@H](C)C(=O)N[C@H](C(=O)N[C@H](C(=O)N[C@@H](C)C(=O)N[C@@H](Cc1c[nH]c2ccccc12)C(=O)O)[C@@H](C)CC)C(C)C)[C@@H](C)CC [AWTQRIKAYLRREIRKRGRKAVIAW] | 2 (≈ 6.25 µg/mL) | 8 (≈ 25 µg/mL) | 2 (≈ 6.25 µg/mL) |  |  |  |  |  |  | 
CC[C@H](C)[C@H](NC(=O)[C@H](C)NC(=O)[C@H](CCCCN)NC(=O)CNC(=O)[C@H](C)NC(=O)[C@H](CO)NC(=O)[C@H](Cc1ccccc1)NC(=O)[C@H](CC(C)C)NC(=O)CNC(=O)CNC(=O)[C@H](C)NC(=O)[C@H](C)NC(=O)[C@H](Cc1cnc[nH]1)NC(=O)[C@H](Cc1cnc[nH]1)NC(=O)[C@@H](NC(=O)[C@@H](N)Cc1ccccc1)[C@@H](C)CC)C(=O)N[C@@H](Cc1cnc[nH]1)C(=O)N[C@@H](CCCN=C(N)N)C(=O)N[C@@H](CC(C)C)C(=O)N[C@H](C(=O)N[C@@H](CCCN=C(N)N)C(=O)N[C@@H](CCCN=C(N)N)C(=O)N[C@@H](CCCN=C(N)N)C(=O)N[C@@H](CCCN=C(N)N)C(=O)N[C@@H](CCCN=C(N)N)C(=O)O)[C@@H](C)CC [FIHHAAGGLFSAGKAIHRLIRRRRR] |  |  |  | 44.2 (≈ 128 µg/mL) |  |  |  |  |  | MIC [4]: ≥ 177 µM; MIC [5]: 177 µM (≈ 512 µg/mL); MIC (Staphylococcus aureus MR): ≥ 177 µM
CC[C@H](C)[C@H](NC(=O)[C@H](CO)NC(=O)[C@@H]1CCCN1C(=O)[C@H](CC(C)C)NC(=O)[C@@H](NC(=O)[C@H](CCCCN)NC(=O)[C@H](C)NC(=O)[C@H](C)NC(=O)[C@H](CC(C)C)NC(=O)CNC(=O)[C@H](C)NC(=O)[C@@H](NC(=O)[C@@H](NC(=O)[C@@H]1CCCN1C(=O)[C@H](CC(C)C)NC(=O)[C@@H](N)Cc1ccccc1)C(C)C)C(C)C)C(C)C)C(=O)N[C@H](C(=O)N[C@H]1CSSC[C@@H](C(=O)O)NC(=O)[C@H](CCCCN)NC(=O)[C@H](CCCCN)NC(=O)[C@H]([C@@H](C)O)NC(=O)[C@H](C(C)C)NC(=O)[C@H](C)NC1=O)[C@@H](C)CC [FLPVVAGLAAKVLPSIICAVTKKC] |  |  |  |  |  |  |  |  |  | MIC [6]: ≥ 52.4 µM; MIC [7]: 2.32 µM (≈ 5.65 µg/mL); MIC [8]: 7 µM (≈ 17.1 µg/mL)
CC[C@H](C)[C@H](NC(=O)[C@@H](NC(=O)[C@@H](NC(=O)[C@H](CCCN=C(N)N)NC(=O)[C@H](CCCN=C(N)N)NC(=O)[C@H](C)NC(=O)[C@H](CC(C)C)NC(=O)[C@@H](N)CCCN=C(N)N)C(C)C)C(C)C)C(=O)N[C@@H](CCCN=C(N)N)C(=O)N[C@H](C(=O)N[C@@H](C)C(=O)N[C@@H](CCCN=C(N)N)C(N)=O)C(C)C [RLARRVVIRVAR] |  |  |  | 85.3 (≈ 125 µg/mL) | 43 (≈ 63 µg/mL) | ≥ 43 | 10.9 (≈ 16 µg/mL) | 10.9 (≈ 16 µg/mL) | 21.2 (≈ 31 µg/mL) | MIC [12]: 85.3 µM (≈ 125 µg/mL)
CC[C@H](C)[C@H](NC(=O)[C@H](CCCCN)NC(=O)[C@H](Cc1c[nH]c2ccccc12)NC(=O)[C@H](CCCNC(=N)N)NC(=O)[C@@H](N)CCCNC(=N)N)C(=O)N[C@H](C(=O)N[C@H](C(=O)N[C@H](C(=O)N[C@@H](CCCNC(=N)N)C(=O)N[C@@H](Cc1c[nH]c2ccccc12)C(=O)N[C@@H](CCCNC(=N)N)C(=O)N[C@@H](CCCNC(=N)N)C(=O)O)[C@@H](C)CC)C(C)C)C(C)C [RRWKIVVIRWRR] |  |  |  | 11.1 (≈ 19.1 µg/mL) | 0.7 (≈ 1.21 µg/mL) | 5.6 (≈ 9.66 µg/mL) | 0.3 (≈ 0.517 µg/mL) | 1.4 (≈ 2.41 µg/mL) | 2.8 (≈ 4.83 µg/mL) | MIC [12]: 1.4 µM (≈ 2.41 µg/mL)
CC[C@H](C)[C@H](NC(=O)[C@H](CCCN=C(N)N)NC(=O)[C@H](CC(C)C)NC(=O)[C@H](CCC(N)=O)NC(=O)[C@@H](N)C(C)C)C(=O)N[C@@H](CCCN=C(N)N)C(=O)N[C@H](C(=O)N[C@@H](CCCN=C(N)N)C(=O)N[C@H](C(=O)N[C@H](C(=O)N[C@@H](CCCN=C(N)N)C(=O)N[C@@H](CCCCN)C(N)=O)[C@@H](C)CC)C(C)C)C(C)C [VQLRIRVRVIRK] |  |  |  | 3.91 (≈ 6 µg/mL) | 7.81 (≈ 12 µg/mL) | 3.91 (≈ 6 µg/mL) | 1.04 (≈ 1.6 µg/mL) | 1.95 (≈ 3 µg/mL) | 3.91 (≈ 6 µg/mL) | 
CC[C@H](C)[C@H](NC(=O)[C@H](CCCN=C(N)N)NC(=O)[C@H](CCC(N)=O)NC(=O)[C@@H](NC(=O)CNC(=O)[C@@H](N)Cc1c[nH]c2ccccc12)[C@@H](C)O)C(=O)N[C@@H](CCCCN)C(=O)N[C@@H](C)C(=O)N[C@@H](Cc1ccc(O)cc1)C(=O)N[C@@H](CC(C)C)C(=O)N[C@@H](CCCN=C(N)N)C(=O)N[C@@H](CCCN=C(N)N)C(=O)N[C@@H](CCC(=O)O)C(=O)N[C@H](C(=O)N[C@@H](CCCN=C(N)N)C(=O)N[C@@H](CCCCN)C(=O)N[C@@H](CCCN=C(N)N)C(=O)NCC(=O)N[C@@H](CCCN=C(N)N)C(=O)N[C@@H](CCCCN)C(=O)N[C@@H](C)C(=O)N[C@H](C(=O)N[C@H](C(=O)N[C@@H](C)C(=O)N[C@@H](Cc1c[nH]c2ccccc12)C(=O)O)[C@@H](C)CC)C(C)C)[C@@H](C)CC [WGTQRIKAYLRREIRKRGRKAVIAW] | 2 (≈ 6.23 µg/mL) | 8 (≈ 24.9 µg/mL) | 0.5 (≈ 1.56 µg/mL) |  |  |  |  |  |  | 
